These results are taken from US10487089B2, “Imaging agents and methods of identifying same” (The Trustees of the University of Pennsylvania, priority 2014, dated 2019).

Data set [1] deals with HeLa cells. The data set can be described thus: One-hundred-time-point timelapse microscopy (photostability / resistance to photobleaching). It is filed as cell-based. The following applies: for loss of intensity over 100 scans: 100 pulses of 300 ms, maximum intensity of the image tracked; for photostability compared with commercial dyes: vs Lysotracker Red / Mitotracker Red, 100 laser pulses of 300 ms; for decrease in intensity after 100 scans: 300 ms/scan, HeLa cells. As for the experimental part:
One-hundred-time-point microscopy experiments were performed to evaluate photostability and/or resistance to photobleaching in comparison with the commercial dyes of lysotracker and mitotracker. […] For these experiments, each sample was pulsed 100 times for 300 ms and the maximum intensity of the image was tracked over time. […] Mitotracker was more robust than lysotracker, losing only 34% of its intensity over the 100 scans, while compound 3 lost only ˜13%. The most robust dye discovered thus far is monomethylated-3 (Me-3), which lost only ˜5% of its intensity over 100 scans.
This was determined via one-hundred-time-point timelapse microscopy experiments in which the […] intensity of the image was monitored over 100 laser pulses of 300 ms (FIG. 42).
To investigate photostability of 2 and 3, timelapse microscopy experiments were carried out.

Data set [2] concerns HeLa cells. The experiment in a line: Confocal microscopy of stained live HeLa cells (subcellular localization, cell permeability). The note with it: for staining specificity / subcellular localization: confocal microscopy.
Excerpt: (§3) Confocal microscopy was done on a Yokogawa spinning disk inverted microscope with a 100× lens. Each batch of stained cells was imaged by exciting with a 488 nm laser while observing at 503-545 nm (the green overlay images), exciting with a 561 nm laser while observing at 583-650 nm (the red overlay images), and by DIC (the grey images) (FIG. 8).
(§4) A 444 nm excitation was required to image with compounds 2 and 3 (FIG. 18).
Data set [3] deals with HeLa cells. The data set can be described thus: Toxicity to HeLa cells on a 24 h timescale (live-cell imaging).
A further data set concerns lysosomes of HeLa cells. The experiment in a line: Co-staining with lysotracker red, Pearson colocalization correlation. The data set is classed as cell-based. As to the method: (§1) Pearson correlations were done after co-staining with mitotracker or lysotracker to evaluate specificity.
(§2) Confirmation of the supposed lysosome and mitochondria staining was achieved by doing co-staining experiments with Lysotacker Red™ and Mitortracker Red™, respectively. A Pearson colocalization correlation (PCC) of 0.75 was determined from a costaining experiments in which HeLa cells were incubated with E/Z-2 and Lysotracker. The imperfect correlation is due to higher specificity for a subset of vesicles stained by the Lysotracker.

Data set [4] is described as follows: Variable temperature 1H-NMR of E/Z interconversion. It is filed as physicochemical. The note with it: DMF-d7, coalescence at 45° C. From the text:
A rapid and efficient synthesis of the desired photoactivatable probe starting with commercially available 2-cyanopyridine (FIG. 52). 2-cyanopyridine was elaborated to thioketone A using methods similar to those previously reported (Rarig et al., 2013, J. Am. Chem. Soc. 135: 9213-9219, which is incorporated by reference in its entirety for all purposes). Homocoupling of A, using copper powder in toluene under refluxing conditions, yielded 1,1′-diazaxanthilidene 10 as an interconverting mixture of E and Z isomers in 84% yield (FIG. 43). Methylation of 10 with dimethyl sulfate afforded the desired monomethylated product 11-E/11-Z in 96% yield. The overall yield of the probe from commercial starting materials after 6 steps was 24% (FIGS. 43 and 52). Single crystals of 10-E and 11-Z were obtained by slow evaporation from chloroform:methanol (1:1) and water, respectively. […] Variable temperature ^1H-NMR (J. Sandström, 1982, Dynamic NMR spectroscopy, Academic Press, London, New York) of 10-E/10-Z in deuterated N,N-dimethylformamide confirmed the dynamic interconversion of the E and Z isomers at room temperature.

The test system of data set [5] is HeLa cells.
Data set [6] deals with HeLa cells. The source holds these as a separate data set.
Excerpt: as §3, §4
The test system of data set [7] is mitochondria of HeLa cells. The data set can be described thus: Co-staining with mitotracker red, Pearson colocalization correlation. It is filed as cell-based. As to the method:
as §1, §2

Data set [8] in a line: Photophysical properties (absorption, emission, extinction coefficient, quantum yield). It is filed as physicochemical. From the text:
n-Butyllithium in hexanes was purchased from Acros and titrated with diphenylacetic acid, which was recrystallized from toluene. All other reagents were purchased from Sigma Aldrich and used without further purification. Solvents were purchased from either Sigma Aldrich or Fisher Scientific. Anhydrous solvents were purchased from Fisher Scientific and dried by passing through an alumina column of a solvent purification system. Silica gel (230-400 mesh) used for column chromatography was purchased from Silicycle. Thin layer chromatography plates (250 μm thickness) were purchased from Sorbent Technologies. Revered-phase column chromatography was done using a RediSep Rf Gold C18 column on a Teledyne Isco CombiFlash Rf system. High-performance liquid chromatography (HPLC) was performed on a Jasco HPLC system using a Phenomenex column (Luna 5u C18(2) 100A; 250×4.60 mm, 5 micron). UV absorption spectra were obtained on a Jasco V-650 spectrophotometer using a 1 cm path length quartz cuvette. Fluorescence emission spectra were taken on a Horiba Jobin-Yvon FluoroLog using a 1 cm path length fluorescence quartz cuvette. ^1H-NMR and ^13C-NMR were recorded on either a Bruker DMX 500 (500 MHz) or a Bruker AVII 500 (500 MHz). High-resolution mass spectrometry was performed using a Waters LCT Premier XE Mass Spectrometer (model KE 332). […] was performed using a Bruker APEX2-DUO CCD X-ray Diffractometer. Photoreactions were carried out in a Rayonet Photochemical Reactor (model RPR-100). Quantum yield was determined by serial dilution method using coumarine 153 (in ethanol, Φ=0.38) and fluorescein (in NaOH 0.1 M, Φ=0.95) as standards (Yvon, A guide to recording Fluorescence Quantum Yields, http://www.horiba.com/fileadmin/uploads/Scientific/Documents/Fluorescence/quantumyie ldstrad.pdf, accessed Jul. 13, 2014; Brouwer, 2011, Pure Appl. Chem. 83: 2213-2228)

The conditions of data set [9]: in ethanol; cited from earlier work.

“Also recorded” adds a separate entry of the source. Like-named read-outs stand apart in the source and are kept apart here.

Excerpt for Solubility (DMSO, water): Water solubility would then be evaluated first by simply doing an aqueous extraction.

For `CN(C)CCNC(=O)CCc1ccc2n1[B-](F)(F)[N+]1=C(c3ccc[nH]3)C=CC1=C2` [lysotracker, reference compound], the “loss of intensity over 100 scans” value with HeLa cells [1] is on record as 80%.
With `C[n+]1ccc2c(c1)oc1cccc3c4c[n+](C)cc5oc6ccccc6c(c54)c2c13` [DiMe-2, 2,9-dimethylchromeno[2,3,4-de]pyrido[3′,4′:2,3]chromeno[4,5-gh]isoquinoline-2,9-diium], in the data set on HeLa cells [2], the cell permeability result was “cell permeable” and the “staining specificity / subcellular localization” value is “specific for punctuate organelles; also recorded: lysosomal subcellular specificity”. For the same molecule, the water solubility entry in “Solubility (DMSO, water)” was “water-solubility”. Further, in the data set on HeLa cells [3], the “toxicity to HeLa cells” value is “non-toxic”.
`ClCc1ccc(C2=c3cc4c5c(c3Oc3c2cc2c6c3CCCN6CCC2)CCC[N+]=5CCC4)cc1.[Cl-]` [Mitotracker, reference compound]: the “loss of intensity over 100 scans” value in the data set with HeLa cells [1] amounted to 34%.
`C[n+]1ccc2c(c1)Oc1ccccc1/C2=C1/c2ccccc2Oc2cnccc21` [Me-E-1, (E)-2-methyl-[5,5′-bichromeno[2,3-c]pyridinylidene]-2-ium]: the “loss of intensity over 100 scans” value in the data set on HeLa cells [1] was approximately 30%. Further, the figures for the “staining specificity / subcellular localization” value with HeLa cells [2], in the data set with HeLa cells [2] (listed as Me-1) and in the data set on HeLa cells [2] (listed as monomethylated 3,3′-DAXAZ) were “lysosome-specific stain”, “lysosome-specific stain” and “good lysosomal stain”, respectively. Further, in the data set with lysosomes of HeLa cells, the “Pearson correlation with lysotracker red” value was determined as 0.75.
In the case of `c1ccc2c(c1)Oc1cccnc1/C2=C1\c2ccccc2Oc2cccnc21` (racemic) [10-E/10-Z, 1,1′-diazaxanthilidene], the “activation energy ΔG‡ of E/Z interconversion” value in [4] is listed as 15.7 kcal/mol.
Consider `C[n+]1ccc2c(c1)Oc1ccccc1/C2=C1/c2ccccc2Oc2c[n+](C)ccc21` [DiMe-E-1, (E)-3,3′-dimethyl-[5,5′-bichromeno[2,3-c]pyridinylidene]-3,3′-diium], for which the “photostability compared with commercial dyes” value in the data set on HeLa cells [1] was “superior”. Further, in the data set with HeLa cells [2], the cell permeability entry was “cell permeable” and the “staining specificity / subcellular localization” value is given as “specific for punctuate organelles; also recorded: lysosomal subcellular specificity”. For the same molecule, the water solubility result in the data set “Solubility (DMSO, water)” was “water-solubility”. In addition, the “toxicity to HeLa cells” value in the data set with HeLa cells [3] is given as “non-toxic”.
As for `C[n+]1ccc2c(c1)oc1cccc3c4cccc5oc6c[n+](C)ccc6c(c54)c2c13` [DiMe-3, 9,14-dimethyl-9,14-diaza-benzo[1,2,3-kl:6,5,4-k′l′]dixanthene], in the data set on HeLa cells [5], the “toxicity to HeLa cells” value is reported as “non-toxic”. In addition, in the data set with HeLa cells [2], the “staining specificity / subcellular localization” value was “staining lysosomes; also recorded: specific for punctuate organelles; also recorded: lysosomal subcellular specificity”. In the data set with HeLa cells [6], the cell permeability entry is “cell permeable”.
In the case of `C[n+]1ccc2c(c1)Oc1ccccc1/C2=C1/c2ccccc2Oc2c[n+](C)ccc21` [E/Z-6], the “staining specificity / subcellular localization” value in the data set on HeLa cells [2] is “stains lysosomes”.
Take `C[n+]1ccc2c(c1)Oc1ccccc1/C2=C1\c2ccccc2Oc2c[n+](C)ccc21` [DiMe-Z-1, (Z)-N, N′-dimethyl-3,3′-diazaxanthylidene]: the “photostability compared with commercial dyes” value in the data set on HeLa cells [1] is recorded as “superior”. Besides, in the data set on HeLa cells [2], the cell permeability result was “cell permeable” and the “staining specificity / subcellular localization” value was “specific for punctuate organelles; also recorded: lysosomal subcellular specificity”. The water solubility result in “Solubility (DMSO, water)” is listed as “water-solubility”. For the same molecule, in the data set with HeLa cells [3], the “toxicity to HeLa cells” value is “non-toxic”.
In the case of `c1ccc2c(c1)oc1cncc3c4cccc5oc6cnccc6c(c54)c2c13` [Compound 2, chromeno[2,3,4-de]pyrido[3′,4′:2,3]chromeno[4,5-gh]isoquinoline;2,9-diaza-benzo[1,2,3-kl:6,5,4-k′l′]dixanthene], in the data set with HeLa cells [1], the “decrease in intensity after 100 scans” value is “only a slight decrease in intensity” and the “photostability compared with commercial dyes” value was “superior”. Also, in the data set on HeLa cells [2], the cell permeability result was “cell permeable; also recorded: cell-permeable”; the “staining specificity / subcellular localization” value was “staining mitochondria; also recorded: selectively stain mitochondria rather than the nucleus; also recorded: mitochondria-specific dyes; also recorded: localize primarily in the mitochondria; also recorded: stains mitochondria and additional structures”. Moreover, the “toxicity to HeLa cells” value with HeLa cells [3] was “non-toxic”. Besides, the “Pearson correlation with mitotracker red” value in data set [7] is on record as 0.75.
In the case of `c1cc2oc3cnccc3c3c2c(c1)c1cccc2oc4cnccc4c3c21` [Compound 3, 9,14-diaza-benzo[1,2,3-kl:6,5,4-k′l′]dixanthene], in the data set with HeLa cells [1], the “loss of intensity over 100 scans” value is recorded as approximately 13% and the “decrease in intensity after 100 scans” value is given as “only a slight decrease in intensity”. Moreover, in the data set with HeLa cells [5], the “toxicity to HeLa cells” value is “non-toxic”. Besides, the “Pearson correlation with mitotracker red” value in data set [7] is 0.75.
For the molecule `C[n+]1cccc2oc3cccc4c5cccc6oc7cccnc7c(c65)c(c34)c21` [Compound 12], the Stokes shift in data set [8] is given as 108 nm. Besides, in [8] (in water), the “Abs λmax” value was determined as 504 nm and the “Em λmax” value was found to be 612 nm. Also, in data set [8] (solvent: water), the “extinction coefficient ε” value came out at 11496 M⁻¹ cm⁻¹ and the “quantum yield Φ” value was determined as 0.100.
`C[n+]1ccc2c(c1)oc1cccc3c4cccc5oc6cnccc6c(c54)c2c13` [Me-3, 9-Me-9,14-diaza-benzo[1,2,3-kl:6,5,4-k′l′]dixanthene]: the “loss of intensity over 100 scans” value in the data set with HeLa cells [1] is approximately 5%. The “Pearson correlation with lysotracker red” value with lysosomes of HeLa cells was found to be 0.25.
`O=c1cc(C(F)(F)F)c2cc3c4c(c2o1)CCCN4CCC3` [coumarine 153]: the “quantum yield Φ of standard” value in data set [9] is given as 0.38.
With `c1ccc2c(c1)Oc1cnccc1/C2=C1\c2ccccc2Oc2cnccc21` (racemic) [E/Z-1, 3,3′-diazaxanthylidene], in “Solubility (DMSO, water)” (DMSO), the “solubility in DMSO” value is “poor solubility”.
